As usually defined, the IC50 is the concentration needed to halve the response being measured. A lower IC50 goes with greater potency in that assay.

The source of these data is patent US11939334B2, “Substituted pyrimido[4,5-b][1,4]diazepines as PLK1 degradation inducers” (UPPTHERA, INC., priority 2021, dated 2024).

Bounds are passed on as bounds.

One experiment concerns the target T1, PLK1 (Homo sapiens, UniProt P53350).
T1 construct: endogenous in cells; host or cells: HeLa cells stably expressing LgBit, with CRISPR/Cas9 knock-in of HiBit at the endogenous PLK1 locus
The experiment in a line: Luciferase assay for PLK1 in HeLa LgBit (Plk1-HiBit KI) cell line. Particulars: 300 nM compound, luminescence after 9 hours. The format is cell-based. How it is done: 2. Luciferase Assay for PLK1
(1) Preparation and Culture of HeLa LgBit (Plk1-HiBit KI) Cell Line
A HeLa cell line in which the LgBit vector was transfected and expressed stably was prepared. Then, after constructing gRNA and donor to express the HiBit amino acid sequence behind the C-terminal of the Plk1 gene, which was inherent in the cell, it was inserted into the cell together with a vector capable of expressing CRISPR/Cas9. Only the cells in which the insertion was completed and knock-in had progressed were selected, sub-cultured and used.
(2) Treatment of Compounds of the Present Invention and Method of Luciferase Assay
In the case of HeLa LgBit (Plk1-HiBit KI), the compounds were treated after being released after thymidine block, and the process was as follows. Thymidine (Sigma-Aldrich Cat. No. T9250-5G) was completely dissolved in DW and used in the experiment. For thymidine block, the products were treated with 2 mM of thymidine and then incubated for 24 hours. For release and chemical treatment, the medium was suctioned and washed with 1×PBS. TrypLE™ was added and incubated in 37° C. CO2 incubator for 5 min. Cells neutralized by adding complete media were counted through a counter. For each well of a 96-well culture plate (SPL), 3.3×10^4 cells and a total medium volume of 150 μL were seeded and incubated in a CO2 incubator.
Each cell line was incubated in a CO2 incubator for 18 hours, and Endurazine was added to each well to make up 4% of the total volume. After adding the compound of the present invention in a 96-well white plate (SPL) to a concentration of 300 nM, the wavelength of the plate reader (BMG Labtech, CLARIOstar Plus) was set to […], and then the luminescence was tracked in real time.
The results are shown in Table 2 below and FIGS. 1 and 2.
In Table 2, Activity represents the ratio of the luminescence value of each Exemplary Compound treatment group to DMSO treatment group (+++: <0.3, ++ <0.6, + <0.7).
(HiBiT is a short tag that completes a luciferase, so light tracks the accessible tagged protein.)

For a further experiment, the system named is H526 cell line. The experiment in a line: Cell viability assay for H526 cell line. The format is cell-based. Particulars: Homo sapiens, NCI-H526, 120 h; H526 cells, 5 days, EZ-Cytox, 0.46-3000 nM. The procedure: 3. Cell Viability Assay for H526 Cell Line
(1) Culture of NCI-H526 Cell Line
(2) Treatment of Compounds of the Present Invention and Method of Cell Viability Assay
After treating the compound to each well to make the total volume of 200 μL, it was cultured in a CO2 incubator (Thermo Fisher Science, Cat. No. 4111) for 5 days.
The absorbance of the completely cultured sample was measured by setting the wavelength of a plate reader (BMG Labtech, CLARIOstar Plus) to […], and was measured after shaking for 3 minutes in a plate reader before measurement.
In Table 3, Activity represents IC50 value of each Exemplary Compound treatment group to H526 cell line (A: <30 nM, B: <50 nM, C: <100 nM, D: <200 nM, E: <400 nM).

T1 sequence (P53350 whole entry): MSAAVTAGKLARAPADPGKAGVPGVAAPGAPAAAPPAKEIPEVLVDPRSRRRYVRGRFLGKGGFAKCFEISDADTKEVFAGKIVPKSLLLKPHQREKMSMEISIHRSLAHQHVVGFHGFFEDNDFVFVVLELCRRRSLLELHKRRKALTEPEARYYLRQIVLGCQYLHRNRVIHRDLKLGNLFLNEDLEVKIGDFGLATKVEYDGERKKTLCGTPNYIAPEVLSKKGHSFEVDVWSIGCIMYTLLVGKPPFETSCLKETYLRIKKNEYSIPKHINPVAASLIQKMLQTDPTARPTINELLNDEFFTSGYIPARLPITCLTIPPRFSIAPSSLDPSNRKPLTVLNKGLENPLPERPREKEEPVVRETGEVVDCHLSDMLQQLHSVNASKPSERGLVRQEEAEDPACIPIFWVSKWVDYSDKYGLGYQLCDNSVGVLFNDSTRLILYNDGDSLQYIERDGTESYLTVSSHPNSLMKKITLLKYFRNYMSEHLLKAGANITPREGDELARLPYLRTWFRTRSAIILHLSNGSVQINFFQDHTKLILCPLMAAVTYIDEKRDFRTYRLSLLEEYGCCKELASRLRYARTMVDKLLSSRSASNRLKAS

For `COc1cc(C(=O)NC2CCC(N(C)CC3CCN(c4ccc(C5CCC(=O)NC5=O)cc4F)CC3)CC2)ccc1Nc1ncc2c(n1)N(C(C)C)CC(F)(F)C(=O)N2C` (stereo not drawn) [Compound 8, 4-((7,7-difluoro-9-isopropyl-5-methyl-6-oxo-6,7,8,9-tetrahydro-5H-pyrimido[4,5-b][1,4]diazepin-2-yl)amino)-N-((1s,4s)-4-(((1-(4-(2,6-dioxopiperidin-3-yl)-2-fluorophenyl)piperidin-4-yl)methyl)(methyl)amino)cyclohexyl)-3-methoxybenzamide], the “Activity: ratio of the luminescence value of each Exemplary Compound treatment group to DMSO treatment group” value (“Activity: ratio” below) at PLK1 is recorded as “++ (++ <0.6)”.

On to `COc1cc(C(=O)NC2CC3(CCN(CC4CCN(c5ccc(C6CCC(=O)NC6=O)cc5F)CC4)CC3)C2)ccc1Nc1ncc2c(n1)N1CCC[C@@H]1CC(=O)N2C` (stereo partly drawn) [Compound 24, N-(7-((1-(4-(2,6-dioxopiperidin-3-yl)-2-fluorophenyl)piperidin-4-yl)methyl)-7-azaspiro[3.5]nonan-2-yl)-3-methoxy-4-(((R)-5-methyl-6-oxo-6,7,7a,8,9,10-hexahydro-5H-pyrimido[5,4-b]pyrrolo[1,2-d][1,4]diazepin-2-yl)amino)benzamide], for which the “Activity: ratio” value at PLK1 is “++ (++ <0.6)”. The molecule further yielded an IC50 in the experiment with H526 cell line of under 100 nM.

Consider `COc1cc(C(=O)NC2CC3(CCN(CCC4(C)CCN(c5ccc(C6CCC(=O)NC6=O)cc5F)C4)CC3)C2)ccc1Nc1ncc2c(n1)N(C(C)C)CC(F)(F)C(=O)N2C` (stereo not drawn) [Compound 26, 4-((7,7-difluoro-9-isopropyl-5-methyl-6-oxo-6,7,8,9-tetrahydro-5H-pyrimido[4,5-b][1,4]diazepin-2-yl)amino)-N-(7-(2-(1-(4-(2,6-dioxopiperidin-3-yl)-2-fluorophenyl)-3-methylpyrrolidin-3-yl)ethyl)-7-azaspiro[3.5]nonan-2-yl)-3-methoxybenzamide], for which the “Activity: ratio” value on PLK1 is recorded as “++ (++ <0.6)”. The molecule also displayed an IC50 with H526 cell line of under 30 nM.

In the case of `COc1cc(C(=O)NC2CC3(CCN(C[C@H]4C[C@@H]5C[C@H]4CN5c4ccc(C5CCC(=O)NC5=O)cc4F)CC3)C2)ccc1Nc1ncc2c(n1)N(C(C)C)CC(F)(F)C(=O)N2C` (stereo partly drawn) [Compound 27, 4-((7,7-difluoro-9-isopropyl-5-methyl-6-oxo-6,7,8,9-tetrahydro-5H-pyrimido[4,5-b][1,4]diazepin-2-yl)amino)-N-(7-(((1R,4R,5S)-2-(4-(2,6-dioxopiperidin-3-yl)-2-fluorophenyl)-2-azabicyclo[2.2.1]heptan-5-yl)methyl)-7-azaspiro[3.5]nonan-2-yl)-3-methoxybenzamide], the “Activity: ratio” value at PLK1 is given as “++ (++ <0.6)”. Moreover, the IC50 with H526 cell line is under 30 nM.

As to `COc1cc(C(=O)NC2CC3(CCN(CC4CCN(c5ccc(C6CCC(=O)NC6=O)cc5F)C(=O)C4)CC3)C2)ccc1Nc1ncc2c(n1)N(C(C)C)CC(F)(F)C(=O)N2C` (stereo not drawn) [Compound 28, 4-((7,7-difluoro-9-isopropyl-5-methyl-6-oxo-6,7,8,9-tetrahydro-5H-pyrimido[4,5-b][1,4]diazepin-2-yl)amino)-N-(7-((1-(4-(2,6-dioxopiperidin-3-yl)-2-fluorophenyl)-2-oxopiperidin-4-yl)methyl)-7-azaspiro[3.5]nonan-2-yl)-3-methoxybenzamide], on PLK1, the “Activity: ratio” value was “++ (++ <0.6)”. This molecule also showed an IC50 in the experiment with H526 cell line of under 30 nM.

As to `COc1cc(C(=O)NC2CC3(CCN(CCC4CCN(c5ccc(C6CCC(=O)NC6=O)cc5F)CC4)CC3)C2)ccc1Nc1ncc2c(n1)N(C(C)C)CC(F)(F)C(=O)N2C` (stereo not drawn) [Compound 29, 4-((7,7-difluoro-9-isopropyl-5-methyl-6-oxo-6,7,8,9-tetrahydro-5H-pyrimido[4,5-b][1,4]diazepin-2-yl)amino)-N-(7-(2-(1-(4-(2,6-dioxopiperidin-3-yl)-2-fluorophenyl)piperidin-4-yl)ethyl)-7-azaspiro[3.5]nonan-2-yl)-3-methoxybenzamide], the “Activity: ratio” value on PLK1 was “++ (++ <0.6)”. Besides, the IC50 in the experiment on H526 cell line was under 30 nM.

With `COc1cc(C(=O)NCC2CC3(CCN(CC4CCN(c5ccc(C6CCC(=O)NC6=O)cc5F)CC4)CC3)C2)ccc1Nc1ncc2c(n1)N(C(C)C)CC(F)(F)C(=O)N2C` (stereo not drawn) [Compound 30, 4-((7,7-difluoro-9-isopropyl-5-methyl-6-oxo-6,7,8,9-tetrahydro-5H-pyrimido[4,5-b][1,4]diazepin-2-yl)amino)-N-((7-((1-(4-(2,6-dioxopiperidin-3-yl)-2-fluorophenyl)piperidin-4-yl)methyl)-7-azaspiro[3.5]nonan-2-yl)methyl)-3-methoxybenzamide], the “Activity: ratio” value on PLK1 is “+++ (+++: <0.3)”. The same molecule displayed an IC50 in the experiment with H526 cell line of under 100 nM.

For `COc1cc(C(=O)NC2CC3(CCN(CC4CCN(Cc5ccc(C6CCC(=O)NC6=O)cc5F)CC4)CC3)C2)ccc1Nc1ncc2c(n1)N(C(C)C)CC(F)(F)C(=O)N2C` (stereo not drawn) [Compound 34, 4-((7,7-difluoro-9-isopropyl-5-methyl-6-oxo-6,7,8,9-tetrahydro-5H-pyrimido[4,5-b][1,4]diazepin-2-yl)amino)-N-(7-((1-(4-(2,6-dioxopiperidin-3-yl)-2-fluorobenzyl)piperidin-4-yl)methyl)-7-azaspiro[3.5]nonan-2-yl)-3-methoxybenzamide], the “Activity: ratio” value on PLK1 is on record as “++ (++ <0.6)”.

Turning to `COc1cc(C(=O)NC2CC3(CCN(CC4CCN(c5ccc(C6CCC(=O)NC6=O)c(OC)c5)CC4)CC3)C2)ccc1Nc1ncc2c(n1)N(C(C)C)CC(F)(F)C(=O)N2C` (stereo not drawn) [Compound 37, 4-((7,7-difluoro-9-isopropyl-5-methyl-6-oxo-6,7,8,9-tetrahydro-5H-pyrimido[4,5-b][1,4]diazepin-2-yl)amino)-N-(7-((1-(4-(2,6-dioxopiperidin-3-yl)-3-methoxyphenyl)piperidin-4-yl)methyl)-7-azaspiro[3.5]nonan-2-yl)-3-methoxybenzamide], the “Activity: ratio” value at PLK1 was “++ (++ <0.6)”.

For the molecule `COc1cc(C(=O)NC2CCC(CCN3CCN(c4ccc(C5CCC(=O)NC5=O)cc4F)CC3)CC2)ccc1Nc1ncc2c(n1)N(C(C)C)CC(F)(F)C(=O)N2C` (stereo not drawn) [Compound 41, 4-((7,7-difluoro-9-isopropyl-5-methyl-6-oxo-6,7,8,9-tetrahydro-5H-pyrimido[4,5-b][1,4]diazepin-2-yl)amino)-N-((1s,4s)-4-(2-(4-(4-(2,6-dioxopiperidin-3-yl)-2-fluorophenyl)piperazin-1-yl)ethyl)cyclohexyl)-3-methoxybenzamide], the “Activity: ratio” value on PLK1 is reported as “++ (++ <0.6)”.

On to `COc1cc(C(=O)NN2CCC(CN3CCN(C(=O)c4ccc(OC)c(N5CCC(=O)NC5=O)c4)CC3)CC2)ccc1Nc1ncc2c(n1)N(C(C)C)CC(F)(F)C(=O)N2C` [Compound 51, 4-((7,7-difluoro-9-isopropyl-5-methyl-6-oxo-6,7,8,9-tetrahydro-5H-pyrimido[4,5-b][1,4]diazepin-2-yl)amino)-N-(4-((4-(3-(2,4-dioxotetrahydropyrimidin-1(2H)-yl)-4-methoxybenzoyl)piperazin-1-yl)methyl)piperidin-1-yl)-3-methoxybenzamide], for which the “Activity: ratio” value on PLK1 is reported as “+ (+ <0.7)”.

`COc1cc(C(=O)NC2CCN(C3CCN(c4ccc(C5CCC(=O)NC5=O)cc4F)C3)CC2)ccc1Nc1ncc2c(n1)N(C(C)C)CC(F)(F)C(=O)N2C` (stereo not drawn) [Compound 59, 4-((7,7-difluoro-9-isopropyl-5-methyl-6-oxo-6,7,8,9-tetrahydro-5H-pyrimido[4,5-b][1,4]diazepin-2-yl)amino)-N-(1-(1-(4-(2,6-dioxopiperidin-3-yl)-2-fluorophenyl)pyrrolidin-3-yl)piperidin-4-yl)-3-methoxybenzamide]: the “Activity: ratio” value on PLK1 is listed as “++ (++ <0.6)”.
